Nine compounds from paper PMC9658812, “New Pyrimidine-5-Carbonitriles as COX-2 Inhibitors: Design, Synthesis, Anticancer Screening, Molecular Docking, and In Silico ADME Profile Studies” (Molecules, 2022) can be followed below.

The target in data set [1] is T1, human COX-2 (Homo sapiens, UniProt P35354).
T1 construct: purchased Biovision, Zurich, Switzerland
T1 sequence (P35354 18-604): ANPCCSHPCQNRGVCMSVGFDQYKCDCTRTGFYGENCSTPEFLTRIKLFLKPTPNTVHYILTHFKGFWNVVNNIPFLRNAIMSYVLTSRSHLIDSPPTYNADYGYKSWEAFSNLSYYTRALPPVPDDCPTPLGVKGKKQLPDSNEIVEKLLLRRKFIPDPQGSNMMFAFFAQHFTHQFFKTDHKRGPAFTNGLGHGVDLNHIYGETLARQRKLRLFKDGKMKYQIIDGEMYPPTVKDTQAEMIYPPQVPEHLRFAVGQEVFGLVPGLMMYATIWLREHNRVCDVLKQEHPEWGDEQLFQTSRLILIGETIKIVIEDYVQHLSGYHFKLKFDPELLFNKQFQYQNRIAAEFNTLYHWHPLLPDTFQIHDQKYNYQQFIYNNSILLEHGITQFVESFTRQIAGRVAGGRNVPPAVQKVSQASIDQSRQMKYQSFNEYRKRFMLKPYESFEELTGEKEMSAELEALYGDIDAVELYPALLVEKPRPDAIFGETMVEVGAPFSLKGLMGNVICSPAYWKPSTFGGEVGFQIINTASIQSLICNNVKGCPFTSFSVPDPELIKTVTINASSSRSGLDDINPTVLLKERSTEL
Briefly: COX-2 inhibition assay (fluorometric inhibitor screening kit). Type of data set: biochemical. As to conditions: for inhibition at 10 µM / inhibition at 1 µM / inhibition at 0.1 µM / inhibition at 0.01 µM / inhibition at 0.001 µM: read-out: COX-2 Inhibition (%); for IC50: human COX-2 assay kit, three experiments; for fold more potent than Nimesulide (COX-2 IC50): versus Nimesulide. An excerpt: Fluorometric inhibitor screening kits (Biovision, Zurich, Switzerland) were utilized for the COX-2 enzyme inhibition test, as described before.

For data set [2], the system named is A549 cells (non-small-cell lung cancer). Kind of data set: MTT cytotoxicity assay, A549. As to conditions: for IC50: Homo sapiens, A549, 24 h, read-out: Cytotoxicity IC50 A549.
Protocol: (§1) Breast carcinoma (MCF-7), renal cell carcinoma (A498), lung cancer (A549), and liver carcinoma (HepG2) cell lines, in addition to non-tumorigenic WI-38 cell lines, were collected from the American Type Culture Collection. The cells were grown in DMEM (Invitrogen/Life Technologies) containing 1% penicillin-streptomycin, 10 µg/mL of insulin (Sigma), and 10% FBS (Hyclone).
(§2) To check the possible cellular toxicity, synthesized compounds were subjected to the MTT [3-(4,5-dimethylthiazol-2-yl)-2,5-diphenyltetrazolium bromide] assay against the MCF7, A549, A498, and HepG2 cell lines. […] Later, 2.0–3.0 mL of Trypsin EDTA solution was added into the flask containing the cell layers for 5–15 min to disperse the cell layer, which was observed through an inverted microscope. By gently pipetting, aspirated cells were added into a 6.0–8.0 mL growth medium. […] An amount of 20 μL of a 5-mg/mL MTT solution was applied after a 24-h drug-treatment period, and it was incubated for 4 h. To dissolve the produced purple formazan, each well received 100 μL of dimethyl sulfoxide (DMSO).
Data set [3] concerns HepG2 cells (liver carcinoma). Kind of data set: MTT cytotoxicity assay, HepG2. As to conditions: for IC50: Homo sapiens, HepG2, 24 h, read-out: Cytotoxicity IC50 HepG2. On the technique in general: Tetrazolium assays rely on reduction of a dye to a coloured formazan, in cell work by metabolically active cells.
Protocol: as §1, §2
Data set [4] concerns A498 cells (renal carcinoma). Briefly: MTT cytotoxicity assay, A498. As to conditions: for IC50: Homo sapiens, A498, 24 h, read-out: Cytotoxicity IC50 A498; for fold more cytotoxic than doxorubicin, A498: versus doxorubicin.
Protocol: as §1, §2
Data set [5] concerns MCF7 cells (breast carcinoma). Briefly: MTT cytotoxicity assay, MCF7. As to conditions: for IC50: Homo sapiens, MCF7, 24 h, read-out: Cytotoxicity IC50 MCF7; for fold more cytotoxic than doxorubicin, MCF7: versus doxorubicin.
Protocol: as §1, §2
The subject of data set [6] is WI-38 cells (normal cell derived from lung tissue). Kind of data set: Cytotoxicity on non-tumorigenic WI-38 cell line. As to conditions: Homo sapiens, WI-38, read-out: WI-38 IC50.
Protocol: as §1, §2
Setting [7] is: 10^−5 M, mean of three experiments ± SD.
Setting [8] is: 10^−6 M, mean of three experiments ± SD.
[9] abbreviates: 10^−7 M, mean of three experiments ± SD.
Setting [10] is: 10^−8 M, mean of three experiments ± SD.
Setting [11] is: 10^−9 M, mean of three experiments ± SD.

Read-outs that look alike come from different tables or passages of the source.

On to `COc1ccc(-c2nc(NCc3nc4ccccc4[nH]3)nc(OC)c2C#N)cc1` [Compound 3a, 2-((1H-Benzo[d]imidazol-2-yl)methylamino)-4-methoxy-6-(4-methoxyphenyl)pyrimidine-5-carbonitrile], for which the inhibition (usually the percentage by which the read-out fell short of the control) at 10 µM in data set [1] (setting [7]) is 71.2 ± 1.13%. Moreover, the inhibition at 1 µM in data set [1] (setting [8]) is 62.5 ± 0.95%. The inhibition at 0.1 µM in data set [1] (setting [9]) worked out at 41.1 ± 0.55%. Also, in data set [1] (setting [10]), the inhibition at 0.01 µM was 32 ± 0.61%. Moreover, in data set [1] (setting [11]), the inhibition at 0.001 µM turned out to be 22.3 ± 0.45%. Further, the IC50 (usually the midpoint of a concentration-inhibition curve) in data set [1] came out at 230 ± 10 nM.

As to `COc1ccc(-c2nc(NCc3nc4ccccc4o3)nc(OC)c2C#N)cc1` [Compound 3b, 2-(Benzo[d]oxazol-2-Ylmethylamino)-4-methoxy-6-(4-methoxyphenyl)pyrimidine-5-carbonitrile], the melting point (in general, the temperature, or range, at which the solid turns liquid) was over 300 °C. Further, the 50% inhibitory concentration (IC50) in data set [2] was 19 ± 0.52 nM. Moreover, the IC50 in data set [3] was determined as 22 ± 0.62 nM. Further, in data set [4], the IC50 stood at 4 ± 0.15 nM and the “fold more cytotoxic than doxorubicin, A498” value was “two-fold”. Moreover, in data set [5], the half-maximal inhibitory concentration (IC50) is 3 ± 0.1 nM and the “fold more cytotoxic than doxorubicin, MCF7” value is on record as “three”. In addition, the inhibition at 10 µM in data set [1] (setting [7]) worked out at 40.3 ± 0.62%. Also, in data set [1] (setting [8]), the inhibition at 1 µM is 33.3 ± 0.77%. In data set [1] (setting [9]), the inhibition at 0.1 µM was 22.4 ± 0.59%. Also, the inhibition at 0.01 µM in data set [1] (setting [10]) was 77.01 ± 0.03%. Further, the inhibition at 0.001 µM in data set [1] (setting [11]) is 61.3 ± 0.96%. Moreover, in data set [1], the midpoint of inhibition, the IC50, lay at 200 ± 10 nM and the “fold more potent than Nimesulide (COX-2 IC50)” value is “approximately 4.7 fold”. Also, in data set [6], the IC50 worked out at 94700 ± 2500 nM.

With `COc1ccc(-c2nc(NCc3nc4ccccc4s3)nc(OC)c2C#N)cc1` [Compound 3c, 2-(Benzo[d]thiazol-2-ylmethylamino)-4-methoxy-6-(4-methoxyphenyl)pyrimidine-5-carbonitrile], the melting point was over 300 °C. Besides, the inhibition at 10 µM in data set [1] (setting [7]) worked out at 74.3 ± 1.03%. Further, the inhibition at 1 µM in data set [1] (setting [8]) came out at 57.1 ± 0.92%. Further, the inhibition at 0.1 µM in data set [1] (setting [9]) was found to be 37.6 ± 0.6%. Further, the inhibition at 0.01 µM in data set [1] (setting [10]) came to 32.5 ± 0.53%. Moreover, the inhibition at 0.001 µM in data set [1] (setting [11]) was found to be 21 ± 0.4%. This compound also had an IC50 in data set [1] of 290 ± 10 nM.

On to `COc1ccc(-c2nc(NCc3cc4ccccc4s3)nc(OC)c2C#N)cc1` [Compound 3d, 2-(Benzo[b]thiophen-2-ylmethylamino)-4-methoxy-6-(4-methoxyphenyl)pyrimidine-5-carbonitrile], for which the melting point is over 300 °C. Also, in data set [1] (setting [7]), the inhibition at 10 µM worked out at 38.3 ± 0.63%. Also, the inhibition at 1 µM in data set [1] (setting [8]) worked out at 31.6 ± 0.54%. The inhibition at 0.1 µM in data set [1] (setting [9]) worked out at 21.5 ± 0.49%. Also, the inhibition at 0.01 µM in data set [1] (setting [10]) was 70.3 ± 1.11%. In data set [1] (setting [11]), the inhibition at 0.001 µM was found to be 60.4 ± 0.98%. The compound further came in with an IC50 in data set [1] of 340 ± 10 nM.

The compound `COc1ccc(-c2nc(NS(=O)(=O)c3ccccc3)nc(OC)c2C#N)cc1` [Compound 5a, N-(5-Cyano-4-methoxy-6-(4-methoxyphenyl)pyrimidin-2-yl)benzenesulfonamide] yielded a melting point of 241 to 243 °C. Moreover, the inhibition at 10 µM in data set [1] (setting [7]) is 40.1 ± 0.57%. The inhibition at 1 µM in data set [1] (setting [8]) was determined as 30.2 ± 0.49%. The inhibition at 0.1 µM in data set [1] (setting [9]) came out at 23.6 ± 0.51%. In addition, in data set [1] (setting [10]), the inhibition at 0.01 µM is 72.2 ± 1.31%. The inhibition at 0.001 µM in data set [1] (setting [11]) amounted to 61.3 ± 0.84%. In addition, the 50% inhibitory concentration (IC50) in data set [1] was 260 ± 10 nM.

Take `COc1ccc(-c2nc(NS(=O)(=O)c3ccc(C)cc3)nc(OC)c2C#N)cc1` [Compound 5b, N-(5-Cyano-4-methoxy-6-(4-methoxyphenyl)pyrimidin-2-yl)-4-methylbenzene-sulfonamide]: the melting point is 283 to 285 °C. In addition, the IC50 in data set [2] amounted to 3 ± 0.07 nM. Moreover, in data set [2] (versus doxorubicin), the “fold more cytotoxic than doxorubicin, A549” value is recorded as 4.3 fold. Moreover, the 50% inhibitory concentration (IC50) in data set [3] came to 12 ± 0.38 nM. In data set [3] (versus doxorubicin), the “fold more cytotoxic than doxorubicin, HepG2” value is listed as 2.1 fold. In data set [4], the IC50 is 1 ± 0.05 nM and the “fold more cytotoxic than doxorubicin, A498” value was 7 fold. In data set [5], the 50% inhibitory concentration (IC50) is 2 ± 0.05 nM and the “fold more cytotoxic than doxorubicin, MCF7” value turned out to be 4.5 fold. In data set [1] (setting [7]), the inhibition at 10 µM worked out at 40.2 ± 0.58%. Further, in data set [1] (setting [8]), the inhibition at 1 µM was found to be 36.2 ± 0.44%. The inhibition at 0.1 µM in data set [1] (setting [9]) was determined as 24.7 ± 0.31%. The inhibition at 0.01 µM in data set [1] (setting [10]) is 75.2 ± 1.11%. The inhibition at 0.001 µM in data set [1] (setting [11]) worked out at 59.5 ± 1.04%. Moreover, in data set [1], the IC50 was found to be 180 ± 10 nM and the “fold more potent than Nimesulide (COX-2 IC50)” value is listed as about 9.3 fold. Also, the half-maximal inhibitory concentration (IC50) in data set [6] worked out at 89600 ± 2750 nM.

As for `COc1ccc(-c2nc(NS(=O)(=O)c3ccc(C(C)(C)C)cc3)nc(OC)c2C#N)cc1` [Compound 5c, 4-Tert-Butyl-N-(5-cyano-4-methoxy-6-(4-methoxyphenyl)pyrimidin-2-yl)benzene sulfonamide], the melting point fell in the range of 276 to 278 °C. Moreover, the inhibition at 10 µM in data set [1] (setting [7]) was 42.1 ± 0.93%. For the same compound, the inhibition at 1 µM in data set [1] (setting [8]) amounted to 28.7 ± 0.51%. In addition, the inhibition at 0.1 µM in data set [1] (setting [9]) stood at 20.3 ± 0.52%. The inhibition at 0.01 µM in data set [1] (setting [10]) turned out to be 73.2 ± 1.21%. For the same compound, in data set [1] (setting [11]), the inhibition at 0.001 µM was 64.3 ± 1.05%. In data set [1], this compound registered a half-maximal inhibitory concentration (IC50) of 260 ± 10 nM.

In the case of `COc1cccc2c1C(=O)c1c(O)c3c(c(O)c1C2=O)C[C@@](O)(C(=O)CO)C[C@@H]3O[C@H]1C[C@H](N)[C@H](O)[C@H](C)O1` [Doxorubicin, doxorubicin, reference compound], the IC50 turned out to be 13 ± 0.42 nM in data set [2]; 25 ± 0.55 nM in data set [3]; 7 ± 0.23 nM in data set [4]; 9 ± 0.26 nM in data set [5]; 8830 ± 90 nM in data set [6].

Regarding `CS(=O)(=O)Nc1ccc([N+](=O)[O-])cc1Oc1ccccc1` [Nimesulide, reference compound], in data set [1], the inhibition at 0.001 µM stood at 17.1 ± 0.38%, the inhibition at 0.01 µM worked out at 24 ± 0.42%, the inhibition at 0.1 µM turned out to be 29.4 ± 0.55% and the inhibition at 1 µM was 36.4 ± 0.84%. Besides, the inhibition at 10 µM in data set [1] stood at 69.5 ± 1.02%.
